The numbers were not newly measured in patent US8519110B2, “mRNA cap analogs” (Board of Supervisors of Louisiana State University And …, priority 2008, dated 2013), which cites them from elsewhere.

The target in one data set is eIF4E (Mus musculus, UniProt P63073). The following applies: literature comparison; cited from earlier work.
Another data set deals with recombinant human Dcp2 (Homo sapiens, UniProt Q8IU60). To be noted: mRNAs capped with the analog; cited from earlier work.
For data set [1], the system named is cultured mammalian cells. The following applies: compared with ARCA-capped (m2^7,3′-OGpppG) mRNA; cited from earlier work.
Data set [2] has as its system cultured mammalian cells. To be noted: compared with ARCA-capped mRNA; cited from earlier work.

Sequence of eIF4E (P63073 28-217 limits assumed): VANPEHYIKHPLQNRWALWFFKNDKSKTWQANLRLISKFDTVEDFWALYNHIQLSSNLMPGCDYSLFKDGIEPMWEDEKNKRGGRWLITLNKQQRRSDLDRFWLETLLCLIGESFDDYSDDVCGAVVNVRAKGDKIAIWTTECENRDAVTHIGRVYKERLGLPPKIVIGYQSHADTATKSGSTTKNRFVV

In the case of `CO[C@H]1[C@@H](O)[C@H](n2c[n+](C)c3c(=O)[nH]c(N)nc32)O[C@@H]1COP(=O)([O-])OP(=O)(O)CP(=O)(O)OC[C@H]1O[C@@H](n2cnc3c(=O)[nH]c(N)nc32)[C@H](O)[C@@H]1O` [m2^7,3′-OGppCH2pG], the “Binding affinity for eIF4E” value on eIF4E is listed as “lower binding affinity for eIF4E than that of m2^7,3′-OGpppG”. In addition, the “Hydrolysis of capped mRNA by recombinant human Dcp2 in vitro” value at recombinant human Dcp2 is recorded as “resistant to hydrolysis”. For the same compound, in the data set on cultured mammalian cells [1], the “Stability of capped mRNA in cultured cells” value is recorded as “more stable than those capped with m2^7,3′-OGpppG”. For the same compound, the “Overall translational efficiency of capped mRNA in cells” value in the data set on cultured mammalian cells [2] is given as “lower overall translational efficiency”.
